# Read-outs that look alike come from different tables or passages of the source.
# Assays:
# [1] = target: CK1δ (Homo sapiens, UniProt P48730); assay: CK1δ kinase assay (Caliper LabChip electrophoretic separation of fluoresceinated peptide substrate and product); assay type: biochemical; conditions: 200 pM CK1δ, 50 μM ATP, 1.5 μM peptide, 22 hours at room temperature
# In short: (§1)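 IC50 values were obtained by non-linear regression from eleven-concentration titrations. The kinase reactions were incubated for 22 hours at room temperature before termination with 35 mM EDTA.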
# [2] = target: CK1ε (Homo sapiens, UniProt P49674); assay: CK1ε kinase assay (Caliper LabChip electrophoretic separation of fluoresceinated peptide substrate and product); assay type: biochemical; conditions: 200 pM CK1ε, 50 μM ATP, 1.5 μM peptide, 22 hours at room temperature
# In short: as §1
# CK1ε, sequence (P49674 whole entry): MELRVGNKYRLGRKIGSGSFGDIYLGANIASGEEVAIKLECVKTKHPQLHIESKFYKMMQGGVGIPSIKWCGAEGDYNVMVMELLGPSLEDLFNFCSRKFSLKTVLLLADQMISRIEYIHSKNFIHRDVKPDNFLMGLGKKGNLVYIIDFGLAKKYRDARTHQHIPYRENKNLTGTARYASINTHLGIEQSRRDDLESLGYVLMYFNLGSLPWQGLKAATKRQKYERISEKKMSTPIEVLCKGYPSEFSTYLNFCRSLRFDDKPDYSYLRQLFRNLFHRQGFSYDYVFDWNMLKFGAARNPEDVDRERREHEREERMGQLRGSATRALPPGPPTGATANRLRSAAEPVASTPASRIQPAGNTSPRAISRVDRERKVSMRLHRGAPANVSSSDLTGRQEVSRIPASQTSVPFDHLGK
# CK1δ, sequence (P48730 whole entry): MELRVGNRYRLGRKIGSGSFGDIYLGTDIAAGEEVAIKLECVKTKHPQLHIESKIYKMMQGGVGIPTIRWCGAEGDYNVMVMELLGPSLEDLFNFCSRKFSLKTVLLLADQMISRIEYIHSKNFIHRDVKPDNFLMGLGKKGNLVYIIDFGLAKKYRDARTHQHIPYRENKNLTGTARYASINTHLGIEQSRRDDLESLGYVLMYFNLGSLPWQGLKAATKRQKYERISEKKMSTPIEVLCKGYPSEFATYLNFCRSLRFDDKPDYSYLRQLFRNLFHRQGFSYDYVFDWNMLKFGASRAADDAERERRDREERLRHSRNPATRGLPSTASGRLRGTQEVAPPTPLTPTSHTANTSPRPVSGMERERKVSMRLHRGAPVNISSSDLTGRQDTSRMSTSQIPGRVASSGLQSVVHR
SMILES,IC50 ([1]; read-out: CK1δ IC50 range) [nM],IC50 ([2]; read-out: CK1ε IC50 range) [nM],IC50 ([1]; read-out: CK1δ) [nM],IC50 ([2]; read-out: CK1ε) [nM]
"N#Cc1ccc(C2(NC(=O)N3CCn4nc(-c5ccc(Cl)c(Cl)c5)c(C(N)=O)c4C3)CC(F)(F)C2)cc1 [Compound 316, N^5-(1-(4-Cyanophenyl)-3,3-difluorocyclobutyl)-2-(3,4-dichlorophenyl)-6,7-dihydropyrazolo[1,5-a]pyrazine-3,5(4H)-dicarboxamide]",0.01 to 10,0.01 to 10,,
"CC1(NC(=O)N2CCn3nc(-c4ccc(F)c(Cl)c4)c(C(N)=O)c3C2)CC2(CC2)C1 [Compound 317, 2-(3-Chloro-4-fluorophenyl)-N^5-(5-methylspiro[2.3]hexan-5-yl)-6,7-dihydropyrazolo[1,5-a]pyrazine-3,5(4H)-dicarboxamide]",0.01 to 10,0.01 to 10,,
"CC1(NC(=O)N2CCn3nc(-c4cccc(Cl)c4)c(C(N)=O)c3C2)CC2(CC2)C1 [Compound 318, 2-(3-Chlorophenyl)-N^5-(5-methylspiro[2.3]hexan-5-yl)-6,7-dihydropyrazolo[1,5-a]pyrazine-3,5(4H)-dicarboxamide]",0.01 to 10,0.01 to 10,,
"CC1(NC(=O)N2CCn3nc(-c4ccc(Cl)c(Cl)c4)c(C(N)=O)c3C2)CC2(CC2)C1 [Compound 319, 2-(3,4-Dichlorophenyl)-N^5-(5-methylspiro[2.3]hexan-5-yl)-6,7-dihydropyrazolo[1,5-a]pyrazine-3,5(4H)-dicarboxamide]",0.01 to 10,0.01 to 10,,
"N#CC1(NC(=O)N2CCn3nc(-c4ccc(F)c(Cl)c4)c(C(N)=O)c3C2)CCOC1 (stereo not drawn) [Compound 334, 2-(3-Chloro-4-fluorophenyl)-N^5-(3-cyanotetrahydrofuran-3-yl)-6,7-dihydropyrazolo[1,5-a]pyrazine-3,5(4H)-dicarboxamide]",0.01 to 10,0.01 to 10,,
"CC(C)(O)[C@H](F)CNC(=O)N1CCn2nc(-c3ccc(Cl)c(Cl)c3)c(C(N)=O)c2C1 [Compound 338, (R)-2-(3,4-Dichlorophenyl)-N^5-(2-fluoro-3-hydroxy-3-methylbutyl)-6,7-dihydropyrazolo[1,5-a]pyrazine-3,5(4H)-dicarboxamide]",0.01 to 10,0.01 to 10,,
"NC(=O)c1c(-c2ccc(F)c(Cl)c2)nn2c1CN(C(=O)NC1CN(CC(F)(F)F)C1)CC2 [Compound 339, 2-(3-Chloro-4-fluorophenyl)-N^5-(1-(2,2,2-trifluoroethyl)azetidin-3-yl)-6,7-dihydropyrazolo[1,5-a]pyrazine-3,5(4H)-dicarboxamide]",0.01 to 10,0.01 to 10,,
"CC(C)(C)NC(=O)N1Cc2c(C(N)=O)c(-c3ccc(F)c(Cl)c3)nn2[C@H]2COC[C@H]21 [Compound 352, (5aS,8aR)—N^5-(tert-Butyl)-2-(3-chloro-4-fluorophenyl)-5a,6,8,8a-tetrahydrofuro[3,4-e]pyrazolo[1,5-a]pyrazine-3,5(4H)-dicarboxamide]",10 to 100,10 to 100,18.1,19.8
"NC(=O)c1c(-c2ccc(F)c(Cl)c2)nn2c1CN(C(=O)NC1CC(F)(F)C1)[C@@H]1COC[C@@H]12 [Compound 353, (5aS,8aR)-2-(3-Chloro-4-fluorophenyl)-N^5-(3,3-difluorocyclobutyl)-5a,6,8,8a-tetrahydrofuro[3,4-e]pyrazolo [1,5-c]pyrazine-3,5(4H)-dicarboxamide]",0.01 to 10,0.01 to 10,,
"CC1(NC(=O)N2Cc3c(C(N)=O)c(-c4ccc(F)c(Cl)c4)nn3[C@H]3COC[C@H]32)CC(F)(F)C1 [Compound 354, (5aS,8aR)-2-(3-Chloro-4-fluorophenyl)-N^5-(3,3-difluoro-1-methylcyclobutyl)-5a,6,8,8a-tetrahydrofuro[3,4-e]pyrazolo [1,5-a]pyrazine-3,5(4H)-dicarboxamide]",0.01 to 10,0.01 to 10,,
"CC(C)(C)NC(=O)N1Cc2c(C(N)=O)c(-c3cccc(Cl)c3)nn2C(CF)C1 (stereo not drawn) [Compound A5, N^5-(tert-butyl)-2-(3-chlorophenyl)-7-(fluoromethyl)-6,7-dihydropyrazolo[1,5-a] pyrazine-3,5(4H)-dicarboxamide]",0.01 to 10,0.01 to 10,,

# — patent US9273058B2 (BRISTOL-MYERS SQUIBB COMPANY, priority 2013, dated 2016)
